Here are results for five compounds from patent US12577231B2, “Androgen receptor PROTACS” (GlaxoSmithKline Intellectual Property Development Limited, priority 2023, dated 2026).

Experiment [1] deals with T1, Androgen Receptor protein in human LnCaP cells (Homo sapiens, UniProt P10275, T878A).
T1 construct: the AR gene was modified, using CRISPR/Cas9 editing, so the expressed AR protein included an 11 amino acid HiBiT tag; endogenous in cells; host or cells: clonal LnCaP derived cell line, endogenous AR gene edited by CRISPR/Cas9
T1 sequence (P10275 1-920 T878A): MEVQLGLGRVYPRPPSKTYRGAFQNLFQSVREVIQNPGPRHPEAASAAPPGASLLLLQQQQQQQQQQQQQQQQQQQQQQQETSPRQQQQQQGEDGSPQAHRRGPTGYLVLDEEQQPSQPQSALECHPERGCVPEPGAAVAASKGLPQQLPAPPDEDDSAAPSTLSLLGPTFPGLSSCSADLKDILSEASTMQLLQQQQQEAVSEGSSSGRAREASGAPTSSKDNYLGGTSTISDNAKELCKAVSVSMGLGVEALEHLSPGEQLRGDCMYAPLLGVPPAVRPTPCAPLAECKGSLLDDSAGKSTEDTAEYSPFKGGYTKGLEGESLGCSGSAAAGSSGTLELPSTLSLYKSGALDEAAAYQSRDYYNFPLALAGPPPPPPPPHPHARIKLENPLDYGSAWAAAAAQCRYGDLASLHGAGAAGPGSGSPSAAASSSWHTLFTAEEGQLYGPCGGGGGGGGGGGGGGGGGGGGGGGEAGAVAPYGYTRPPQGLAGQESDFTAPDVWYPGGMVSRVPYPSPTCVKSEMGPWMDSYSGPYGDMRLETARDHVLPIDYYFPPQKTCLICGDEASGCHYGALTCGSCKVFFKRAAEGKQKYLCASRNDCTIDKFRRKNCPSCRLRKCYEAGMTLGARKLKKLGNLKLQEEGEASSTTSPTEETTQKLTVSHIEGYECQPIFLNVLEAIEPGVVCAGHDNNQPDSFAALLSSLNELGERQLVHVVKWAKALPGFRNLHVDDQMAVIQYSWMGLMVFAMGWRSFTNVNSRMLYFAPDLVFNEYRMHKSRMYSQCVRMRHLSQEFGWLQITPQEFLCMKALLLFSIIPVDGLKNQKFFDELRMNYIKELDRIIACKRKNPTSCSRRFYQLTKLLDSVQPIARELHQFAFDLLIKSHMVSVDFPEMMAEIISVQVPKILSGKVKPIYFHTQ
In words: Androgen Receptor Degradation Assay (Nano-Glo HiBiT, LnCaP cells). It is filed as cell-based. The note with it: 18 h, HiBiT-tagged AR LnCaP cells, 18 h incubation, fitted curve asymptote maximum of degradation, read-out: mean asymptote max. Here is the method:
Degradation of Androgen Receptor protein in human LnCaP cells treated with PROTACs was quantified using the Nano-Glo® HiBiT Lytic Detection System (Promega) in 384 well assay plate format. A clonal LnCaP derived cell line was first established in which the AR gene was modified, using CRISPR/Cas9 editing, so the expressed AR protein included an 11 amino acid HiBiT tag at its amino-terminus. 10 mM DMSO stock solutions of PROTACs were prepared and diluted across an 11 concentration, 3 fold increment range, and 25 nL dispensed into a white opaque bottomed 384 well assay plate (Thermofisher) using an acoustic ECHO dispenser (Labcyte). Cells were grown in cell culture medium (RPMI 1640 supplemented with 15% FBS, penicillin 50U/mL and streptomycin 50 ug/mL (Thermofisher)). For the assay, cells were detached from flask and resuspended with assay medium (FluoroBrite™ DMEM supplemented with 10% heat inactivated FBS, penicillin 50U/mL and streptomycin 50 ug/mL (Thermofisher)). The cell suspension was centrifuged at 400 g for 5 min and the pellet resuspended in assay medium. 25 μL of cell suspension containing 10,000 cells was dispensed into each well of the assay plate containing a serial dilution of test compounds, which was then incubated for 18 h at 37° C./5% CO2. Control wells were included on each assay plate, with assay medium without cells being the no AR remaining 100% effect control, and cells treated with DMSO vehicle only, without PROTAC, the 0% effect control. 25 μL of Nano-Glo® HiBiT lysis buffer supplemented with LgBiT protein and Nano-Glo® substrate (Promega) was added to each well and the plate shaken at 500 rpm for 10 min at room temperature. The intensity of luminescence was measured using a PHERAstar microplate reader (BMG Labtech) and the % AR protein remaining in each well calculated by normalising the raw luminescence value to the above control wells. Parameters corresponding to the potency and efficacy estimates of the PROTACs were obtained from these normalised luminescence values using software (IDBS ActivityBase). These included the DC50 (concentration at which 50% of protein was degraded in M) and the Dmax (maximal degradation, in %) estimates. Two versions of the DC50, called relative DC50 and absolute DC50, were generated. These are the inflection point of a fitted 4 parameter sigmoidal response curve and the interpolated concentration of PROTAC corresponding to 50% of the protein being degraded, respectively. The corresponding pDC50 is reported as −log10(relative […]). The Dmax parameter was the maximum experimentally observed degradation and the asymptote max parameter the fitted response curve asymptote maximum.

The target of experiment [2] is T2, Androgen Receptor dual T878A/L702H mutant protein (Homo sapiens, UniProt P10275, L702H/T878A).
T2 construct: host or cells: MDA-PCa-2b
T2 sequence (P10275 1-920 L702H/T878A): T1 sequence (P10275 1-920 T878A) with L702H
In words: Dual Mutant (T878A/L702H) Androgen Receptor Degradation Assay (HTRF, MDA-PCa-2b cells). It is filed as cell-based. The note with it: 18 h, 18 h incubation, read-out: mean asymptote max. Here is the method: Degradation of Androgen Receptor dual T878A/L702H mutant protein in human MDA-PCa-2b (ATCC) cells treated with PROTACs was quantified using the HTRF Human Androgen Receptor Detection Kit (PerkinElmer) in 384 well assay plate format. 10 mM DMSO (Sigma-Aldrich) stock solutions of PROTACs were prepared and diluted across an 11 concentration, 3-fold increment range, and 25 nL dispensed into a white opaque bottomed 384 well assay plate (Thermofisher) using an acoustic ECHO dispenser (Labcyte). Cells were cultured in growth medium (BRFF—HPC-1 (Athena ES) supplemented with 20% FBS (Gibco), penicillin 50U/mL and streptomycin 50 μg/mL (Gibco, #15140-122)) in collagen I or poly-D-lysine coated T175 flasks (Corning, #356487 or #356539, respectively). For the assay, cells were harvested from the flask, centrifuged at 200 g for 5 min and then resuspended in the growth medium. 25 μl of cell suspension containing 10,000 cells was dispensed into each well of the assay plate containing the test compounds, which was then incubated for 18 h at 37° C./5% CO2. Control wells were included on each assay plate, with assay medium without cells being the no AR remaining 100% effect control, and cells treated with DMSO vehicle only, without PROTAC, the 0% effect control. After 18 h incubation 8 μl of supplemented lysis buffer from HTRF kit was added to each well and the plate shaken at 500 rpm for 1 h at room temperature. 8 μl of antibody mix in Detection buffer from HTRF kit was added to each well and the plate was incubated for 2 h in dark at mom temperature. The fluorescence was measured at both 620 nm and 665 nm using an excitation wavelength of 337 nm with a PHERAstar microplate reader (BMG Labtech) and the % AR protein remaining in each well was calculated by normalising the HTRF ratio (665 nm signal/620 nm signal) value to the control wells mentioned above. Parameters corresponding to the potency and efficacy estimates of the PROTACs were obtained from these normalised values using curve fitting software (IDBS ActivityBase). These included the DC50 and the Dmax estimates. Two versions of the DC50, called relative DC50 and absolute DC50, were typically generated. These are the inflection point of a fitted 4 parameter sigmoidal response curve and the interpolated concentration of PROTAC corresponding to 50% of the protein being degraded, respectively. The Dmax parameter was the maximum experimentally observed degradation and the asymptote max parameter the fitted response curve asymptote maximum.
(Time-resolved FRET reads energy transfer from a long-lived donor to a nearby acceptor.)

Changes are numbered by the printed parent chain.

As to `COc1cc(O[C@H]2C(C)(C)[C@H](NC(=O)c3ccc(N4CCC(CN5CCC(n6ncc7c(N8CCC(=O)NC8=O)ccnc76)CC5)CC4)c(F)c3)C2(C)C)ccc1C#N` [Example 19, N-((1r,3r)-3-(4-Cyano-3-methoxyphenoxy)-2,2,4,4-tetramethylcyclobutyl)-4-(4-((4-(4-(2,4-dioxotetrahydropyrimidin-1(2H)-yl)-1H-pyrazolo[3,4-b]pyridin-1-yl)piperidin-1-yl)methyl)piperidin-1-yl)-3-fluorobenzamide], in experiment [1], the Dmax is no less than 50%.
In the case of `COc1cc(O[C@H]2C(C)(C)[C@H](NC(=O)c3ccc(N4CCC(CN5CCC(n6ncc7c(N8CCC(=O)NC8=O)c(F)ccc76)CC5)CC4)c(F)c3)C2(C)C)ccc1C#N` [Example 25, N-((1r,3r)-3-(4-Cyano-3-methoxyphenoxy)-2,2,4,4-tetramethylcyclobutyl)-4-(4-((4-(4-(2,4-dioxotetrahydropyrimidin-1(2H)-yl)-5-fluoro-1H-indazol-1-yl)piperidin-1-yl)methyl)piperidin-1-yl)-3-fluorobenzamide], the Dmax in experiment [2] is no less than 50%.
As to `COc1cc(O[C@H]2C(C)(C)[C@H](NC(=O)c3ccc(N4CCC(CN5CC[C@H](n6ncc7c(N8CCC(=O)NC8=O)cccc76)[C@H](F)C5)CC4)c(F)c3)C2(C)C)ccc1C#N` [Example 26, N-((1r,3r)-3-(4-Cyano-3-methoxyphenoxy)-2,2,4,4-tetramethylcyclobutyl)-4-(4-(((3R,4S)-4-(4-(2,4-dioxotetrahydropyrimidin-1(2H)-yl)-1H-indazol-1-yl)-3-fluoropiperidin-1-yl)methyl)piperidin-1-yl)-3-fluorobenzamide], the Dmax in experiment [2] is no less than 50%.
For `CC1(C)[C@H](NC(=O)c2ccc(N3CCC(CN4CCC(n5ncc6c(N7CCC(=O)NC7=O)cccc65)CC4)CC3)cc2)C(C)(C)[C@H]1Oc1ccc(C#N)c2ncccc12` [Example 29, N-((1r,3r)-3-((8-Cyanoquinolin-5-yl)oxy)-2,2,4,4-tetramethylcyclobutyl)-4-(4-((4-(4-(2,4-dioxotetrahydropyrimidin-1(2H)-yl)-1H-indazol-1-yl)piperidin-1-yl)methyl)piperidin-1-yl)benzamide], the Dmax in experiment [2] was no less than 50%.
Turning to `CC1(C)[C@H](NC(=O)c2cc(F)c(N3CCC(CN4CCC(n5ncc6c(N7CCC(=O)NC7=O)cccc65)CC4)CC3)cc2F)C(C)(C)[C@H]1Oc1ccc(C#N)c2ncccc12` [Example 35, N-((1r,3r)-3-((8-Cyanoquinolin-5-yl)oxy)-2,2,4,4-tetramethylcyclobutyl)-4-(4-((4-(4-(2,4-dioxotetrahydropyrimidin-1(2H)-yl)-1H-indazol-1-yl)piperidin-1-yl)methyl)piperidin-1-yl)-2,5-difluorobenzamide], in experiment [2], the Dmax was no less than 50%.
